Assay [1] has as its target T1, Tyrosine-protein kinase JAK3 (Homo sapiens) (UniProt P52333).
T1 sequence (whole entry): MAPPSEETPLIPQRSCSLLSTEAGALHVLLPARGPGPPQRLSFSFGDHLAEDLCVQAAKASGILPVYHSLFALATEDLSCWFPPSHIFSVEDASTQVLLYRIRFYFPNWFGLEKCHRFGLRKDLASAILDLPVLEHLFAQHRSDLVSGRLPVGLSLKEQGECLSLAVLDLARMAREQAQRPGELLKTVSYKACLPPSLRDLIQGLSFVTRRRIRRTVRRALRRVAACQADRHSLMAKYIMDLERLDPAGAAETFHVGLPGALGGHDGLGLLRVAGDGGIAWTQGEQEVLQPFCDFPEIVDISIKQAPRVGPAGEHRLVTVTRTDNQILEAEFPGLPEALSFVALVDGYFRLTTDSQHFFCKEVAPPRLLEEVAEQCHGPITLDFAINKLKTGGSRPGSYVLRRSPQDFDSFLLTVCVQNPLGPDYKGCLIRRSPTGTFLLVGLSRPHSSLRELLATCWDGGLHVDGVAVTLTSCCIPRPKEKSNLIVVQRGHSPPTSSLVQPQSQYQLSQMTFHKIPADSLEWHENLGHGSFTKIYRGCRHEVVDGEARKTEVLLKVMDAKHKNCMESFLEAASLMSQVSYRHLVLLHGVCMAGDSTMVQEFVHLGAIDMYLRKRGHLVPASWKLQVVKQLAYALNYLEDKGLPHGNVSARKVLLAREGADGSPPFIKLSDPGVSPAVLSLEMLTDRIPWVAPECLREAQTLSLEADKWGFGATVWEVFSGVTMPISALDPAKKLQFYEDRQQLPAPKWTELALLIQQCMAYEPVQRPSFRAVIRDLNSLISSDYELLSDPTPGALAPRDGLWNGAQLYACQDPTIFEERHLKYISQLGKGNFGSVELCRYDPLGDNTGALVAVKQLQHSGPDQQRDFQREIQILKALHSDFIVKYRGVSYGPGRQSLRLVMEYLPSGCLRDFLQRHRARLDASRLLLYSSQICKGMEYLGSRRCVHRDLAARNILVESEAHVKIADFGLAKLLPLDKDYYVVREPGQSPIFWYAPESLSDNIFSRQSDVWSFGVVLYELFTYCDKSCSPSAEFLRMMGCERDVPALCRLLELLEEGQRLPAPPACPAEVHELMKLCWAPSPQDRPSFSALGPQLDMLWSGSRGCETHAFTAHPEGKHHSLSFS
In words: Inhibition of human recombinant JAK3 at 40 nM related to control ULK1.

Assay [2] has as its target Serine/threonine-protein kinase tousled-like 2 (Homo sapiens) (UniProt Q86UE8). Nature of the assay: Inhibition of human recombinant TLK2 at 40 nM related to control ULK1.
Assay [3] addresses Cyclin-dependent kinase 9 (Homo sapiens) (UniProt P50750). In words: Inhibition of human recombinant CDK9 at 500 nM in presence of ATP by radiometric assay relative to control.
Assay [4] deals with T2, Aurora kinase C (Homo sapiens) (UniProt Q9UQB9).
T2 sequence (whole entry): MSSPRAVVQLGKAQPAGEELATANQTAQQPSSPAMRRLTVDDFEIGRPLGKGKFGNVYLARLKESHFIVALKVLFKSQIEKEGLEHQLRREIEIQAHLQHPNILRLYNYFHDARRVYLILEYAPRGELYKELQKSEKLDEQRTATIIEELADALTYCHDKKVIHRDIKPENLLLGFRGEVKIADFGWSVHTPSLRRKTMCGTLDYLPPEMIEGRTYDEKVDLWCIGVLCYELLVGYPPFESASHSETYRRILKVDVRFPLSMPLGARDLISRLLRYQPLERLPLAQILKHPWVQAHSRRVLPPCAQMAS
In words: Inhibition of human recombinant AurC at 500 nM related to control ULK1.

The target in assay [5] is T3, cGMP-dependent protein kinase 2 (Homo sapiens) (UniProt Q13237).
T3 sequence (whole entry): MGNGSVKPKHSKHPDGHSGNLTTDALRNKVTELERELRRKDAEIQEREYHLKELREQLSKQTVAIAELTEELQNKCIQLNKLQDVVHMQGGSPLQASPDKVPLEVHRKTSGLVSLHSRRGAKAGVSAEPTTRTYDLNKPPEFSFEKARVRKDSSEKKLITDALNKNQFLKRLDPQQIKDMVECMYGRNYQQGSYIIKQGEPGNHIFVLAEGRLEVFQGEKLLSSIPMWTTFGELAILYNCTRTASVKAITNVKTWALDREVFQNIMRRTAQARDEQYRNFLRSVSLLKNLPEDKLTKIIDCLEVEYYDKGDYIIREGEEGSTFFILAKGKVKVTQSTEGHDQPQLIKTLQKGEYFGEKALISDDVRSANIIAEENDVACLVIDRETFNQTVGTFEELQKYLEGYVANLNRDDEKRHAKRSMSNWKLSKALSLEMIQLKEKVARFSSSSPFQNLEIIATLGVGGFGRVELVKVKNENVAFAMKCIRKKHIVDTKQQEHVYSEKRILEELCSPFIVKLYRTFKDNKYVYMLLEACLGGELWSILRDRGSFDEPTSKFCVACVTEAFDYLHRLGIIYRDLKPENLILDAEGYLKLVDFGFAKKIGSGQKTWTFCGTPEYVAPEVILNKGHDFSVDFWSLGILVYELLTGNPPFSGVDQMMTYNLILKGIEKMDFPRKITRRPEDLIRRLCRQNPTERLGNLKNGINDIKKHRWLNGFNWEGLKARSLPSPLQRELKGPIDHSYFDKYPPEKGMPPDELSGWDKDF
Nature of the assay: Inhibition of human recombinant PKG2 at 15 nM related to control ULK1.

Assay [6] concerns the target MAP kinase-activated protein kinase 3 (Homo sapiens) (UniProt Q16644). Nature of the assay: Inhibition of human recombinant MAPKAPK3 at 15 nM related to control ULK1.
Assay [7] has as its target LIM domain kinase 1 (Homo sapiens) (UniProt P53667). In words: Inhibition of human recombinant LIMK1 at 15 nM related to control ULK1.
Assay [8] deals with Serine/threonine-protein kinase Nek6 (Homo sapiens) (UniProt Q9HC98). In words: Inhibition of human recombinant NEK6 at 15 nM in presence of ATP by radiometric assay relative to control.
Assay [9] addresses Phosphorylase b kinase gamma catalytic chain, skeletal muscle/heart isoform (Homo sapiens) (UniProt Q16816). Nature of the assay: Inhibition of human recombinant PHKg1 at 15 nM in presence of ATP by radiometric assay relative to control.
Assay [10] has as its target Serine/threonine-protein kinase PAK 2 (Homo sapiens) (UniProt Q13177). In words: Inhibition of human recombinant PAK2 at 15 nM in presence of ATP by radiometric assay relative to control.
Assay [11] has as its target Glycogen synthase kinase-3 beta (Homo sapiens) (UniProt P49841). Nature of the assay: Inhibition of human recombinant GSK3B at 15 nM in presence of ATP by radiometric assay relative to control.

By inhibition is commonly meant the share of the control response that was lost under treatment.

The structures appear in SMILES notation.

Chain of Glycogen synthase kinase-3 beta (Homo sapiens) (P49841 whole entry, looked up): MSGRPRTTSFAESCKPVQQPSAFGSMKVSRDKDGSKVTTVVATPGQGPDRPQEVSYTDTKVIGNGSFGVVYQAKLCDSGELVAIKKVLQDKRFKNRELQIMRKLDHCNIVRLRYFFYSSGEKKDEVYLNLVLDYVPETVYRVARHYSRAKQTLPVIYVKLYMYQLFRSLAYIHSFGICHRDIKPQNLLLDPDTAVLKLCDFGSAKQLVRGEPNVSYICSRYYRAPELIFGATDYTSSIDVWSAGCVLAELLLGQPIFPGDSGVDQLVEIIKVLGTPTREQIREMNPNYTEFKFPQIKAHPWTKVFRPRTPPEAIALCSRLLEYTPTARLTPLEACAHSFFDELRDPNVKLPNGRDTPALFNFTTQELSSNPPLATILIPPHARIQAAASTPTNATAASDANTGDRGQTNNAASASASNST
Chain of Serine/threonine-protein kinase Nek6 (Homo sapiens) (Q9HC98 whole entry, canonical isoform): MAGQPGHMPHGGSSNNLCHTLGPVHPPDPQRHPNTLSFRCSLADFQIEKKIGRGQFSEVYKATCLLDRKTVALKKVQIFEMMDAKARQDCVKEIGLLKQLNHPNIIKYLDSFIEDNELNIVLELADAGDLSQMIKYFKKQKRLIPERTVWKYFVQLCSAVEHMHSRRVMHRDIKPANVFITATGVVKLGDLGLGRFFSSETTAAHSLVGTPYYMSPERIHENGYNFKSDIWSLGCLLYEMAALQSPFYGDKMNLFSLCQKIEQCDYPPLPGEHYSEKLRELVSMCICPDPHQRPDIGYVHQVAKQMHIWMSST
Chain of Serine/threonine-protein kinase tousled-like 2 (Homo sapiens) (Q86UE8 whole entry, looked up): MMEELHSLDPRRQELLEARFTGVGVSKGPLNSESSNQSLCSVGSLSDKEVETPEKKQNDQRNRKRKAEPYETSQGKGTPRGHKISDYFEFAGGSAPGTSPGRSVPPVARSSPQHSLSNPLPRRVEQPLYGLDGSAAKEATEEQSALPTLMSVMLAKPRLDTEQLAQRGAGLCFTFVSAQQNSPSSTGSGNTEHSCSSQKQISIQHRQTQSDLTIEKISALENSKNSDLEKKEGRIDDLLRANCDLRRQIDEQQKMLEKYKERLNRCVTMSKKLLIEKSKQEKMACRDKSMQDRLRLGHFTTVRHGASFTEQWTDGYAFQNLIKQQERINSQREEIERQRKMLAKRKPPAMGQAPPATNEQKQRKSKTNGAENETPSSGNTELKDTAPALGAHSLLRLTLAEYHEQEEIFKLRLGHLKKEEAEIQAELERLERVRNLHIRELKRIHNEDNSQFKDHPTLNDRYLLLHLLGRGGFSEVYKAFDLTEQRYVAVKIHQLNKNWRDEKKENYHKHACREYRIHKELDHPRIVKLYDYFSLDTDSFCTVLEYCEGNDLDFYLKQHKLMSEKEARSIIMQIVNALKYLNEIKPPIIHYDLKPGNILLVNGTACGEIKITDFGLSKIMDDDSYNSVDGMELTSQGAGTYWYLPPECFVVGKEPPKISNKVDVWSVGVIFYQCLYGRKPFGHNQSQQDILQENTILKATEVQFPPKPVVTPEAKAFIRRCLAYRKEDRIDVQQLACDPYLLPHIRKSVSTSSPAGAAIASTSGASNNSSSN
Chain of Phosphorylase b kinase gamma catalytic chain, skeletal muscle/heart isoform (Homo sapiens) (Q16816 whole entry, looked up, canonical isoform): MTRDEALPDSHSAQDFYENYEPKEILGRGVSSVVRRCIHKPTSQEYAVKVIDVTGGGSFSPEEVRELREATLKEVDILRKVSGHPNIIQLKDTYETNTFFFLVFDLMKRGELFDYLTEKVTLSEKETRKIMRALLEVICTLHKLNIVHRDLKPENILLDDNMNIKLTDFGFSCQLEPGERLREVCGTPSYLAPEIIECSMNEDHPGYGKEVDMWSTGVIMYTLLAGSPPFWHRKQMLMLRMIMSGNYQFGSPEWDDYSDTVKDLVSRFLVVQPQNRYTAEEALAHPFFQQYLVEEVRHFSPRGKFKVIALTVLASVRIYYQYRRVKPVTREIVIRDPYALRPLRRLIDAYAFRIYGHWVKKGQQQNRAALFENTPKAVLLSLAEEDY
Chain of Cyclin-dependent kinase 9 (Homo sapiens) (P50750 whole entry): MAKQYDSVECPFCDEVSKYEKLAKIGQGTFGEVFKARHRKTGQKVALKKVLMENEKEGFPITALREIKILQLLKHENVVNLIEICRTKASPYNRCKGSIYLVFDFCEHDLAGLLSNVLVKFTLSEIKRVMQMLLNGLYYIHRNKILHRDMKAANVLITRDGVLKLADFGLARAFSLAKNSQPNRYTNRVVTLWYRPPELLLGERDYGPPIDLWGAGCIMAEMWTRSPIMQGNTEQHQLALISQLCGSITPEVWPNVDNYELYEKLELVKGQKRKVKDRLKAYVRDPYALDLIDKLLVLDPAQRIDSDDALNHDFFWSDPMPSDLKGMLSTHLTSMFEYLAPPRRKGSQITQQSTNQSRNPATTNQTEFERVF
Chain of Serine/threonine-protein kinase PAK 2 (Homo sapiens) (Q13177 whole entry): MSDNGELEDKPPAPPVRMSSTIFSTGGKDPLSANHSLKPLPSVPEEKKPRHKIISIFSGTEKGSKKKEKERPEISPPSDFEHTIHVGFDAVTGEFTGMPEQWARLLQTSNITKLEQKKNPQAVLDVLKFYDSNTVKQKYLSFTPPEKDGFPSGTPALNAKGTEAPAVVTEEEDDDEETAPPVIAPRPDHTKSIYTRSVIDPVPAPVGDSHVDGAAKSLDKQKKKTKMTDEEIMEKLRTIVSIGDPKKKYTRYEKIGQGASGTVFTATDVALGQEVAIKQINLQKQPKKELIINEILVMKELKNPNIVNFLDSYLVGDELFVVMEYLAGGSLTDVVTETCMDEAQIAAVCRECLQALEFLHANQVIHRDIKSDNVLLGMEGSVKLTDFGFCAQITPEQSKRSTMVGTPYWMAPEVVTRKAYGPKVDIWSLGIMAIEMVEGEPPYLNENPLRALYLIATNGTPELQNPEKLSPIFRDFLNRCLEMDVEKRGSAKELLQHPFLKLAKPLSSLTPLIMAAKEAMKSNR
Chain of MAP kinase-activated protein kinase 3 (Homo sapiens) (Q16644 whole entry, looked up, the tested form may be a part): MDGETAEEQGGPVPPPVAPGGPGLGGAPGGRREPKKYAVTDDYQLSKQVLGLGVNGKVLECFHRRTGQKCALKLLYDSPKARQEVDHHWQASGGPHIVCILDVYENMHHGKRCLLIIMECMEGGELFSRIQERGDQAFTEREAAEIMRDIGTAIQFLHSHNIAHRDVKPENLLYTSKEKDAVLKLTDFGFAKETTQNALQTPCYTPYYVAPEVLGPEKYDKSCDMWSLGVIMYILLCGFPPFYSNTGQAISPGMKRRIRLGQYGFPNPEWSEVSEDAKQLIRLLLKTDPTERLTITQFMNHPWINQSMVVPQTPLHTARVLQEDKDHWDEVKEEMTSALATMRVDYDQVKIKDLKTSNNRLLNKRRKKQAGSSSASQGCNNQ
Chain of LIM domain kinase 1 (Homo sapiens) (P53667 whole entry, looked up, the tested form may be a part): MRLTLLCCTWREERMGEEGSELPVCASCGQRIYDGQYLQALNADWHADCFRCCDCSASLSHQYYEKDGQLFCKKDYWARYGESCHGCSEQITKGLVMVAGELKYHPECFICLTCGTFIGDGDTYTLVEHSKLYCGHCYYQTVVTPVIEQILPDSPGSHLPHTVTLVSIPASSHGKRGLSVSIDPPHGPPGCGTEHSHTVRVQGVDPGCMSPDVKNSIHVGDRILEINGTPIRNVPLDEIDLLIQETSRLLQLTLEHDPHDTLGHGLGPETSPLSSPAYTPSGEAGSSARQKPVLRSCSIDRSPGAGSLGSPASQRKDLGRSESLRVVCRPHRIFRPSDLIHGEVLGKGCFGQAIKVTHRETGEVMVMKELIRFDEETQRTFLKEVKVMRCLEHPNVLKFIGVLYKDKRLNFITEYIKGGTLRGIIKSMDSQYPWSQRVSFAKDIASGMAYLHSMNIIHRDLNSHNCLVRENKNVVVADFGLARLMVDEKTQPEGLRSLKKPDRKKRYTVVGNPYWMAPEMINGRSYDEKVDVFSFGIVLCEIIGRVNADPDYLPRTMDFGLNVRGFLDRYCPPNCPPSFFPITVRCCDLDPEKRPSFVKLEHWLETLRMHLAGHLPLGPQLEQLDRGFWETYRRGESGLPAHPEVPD

For the compound `O=C(N[C@@H](C1CC1)C(F)(F)F)c1cc(-c2cnn3cc(-c4ccc(F)cc4)cnc23)cs1`, the fold change (FC) in assay [1] and in assay [2] was 0 in each case.
Consider `CNC(=O)c1ccccc1Oc1nc(Nc2cc(OC)c(OC)c(OC)c2)ncc1Br`, for which the inhibition in assay [3] stood at 3%. Also, the fold change (FC) in [4] is 0.99.
For the compound `CC(C)[C@H](NC(=O)c1cc(-c2cnn3cc(-c4ccc(OCCN5CCCCC5)cc4)cnc23)cs1)C(F)(F)F`, the values for the fold change (FC) in [5], in assay [6] and in [7] were 0.05, 0 and 0.64, respectively. Moreover, the inhibition is 1% in assay [8], 51% in assay [9], 0% in [10] and 11% in [11].

The record behind these values is ChEMBL document CHEMBL5653631, “A Potent and Selective ULK1 Inhibitor Suppresses Autophagy and Sensitizes Cancer Cells to Nutrient Stress” (iScience, 2018).
